Article PMC10066365, “Nemacol is a small molecule inhibitor of C. elegans vesicular acetylcholine transporter with anthelmintic potential” (Nature Communications, 2023)
Values joined by “and” are separate entries in the source; they are usually repeats but may differ in a detail not shown here. Equal entries are not always repeated. Where two headings read alike, the source gives them in different places.

Experiments:
[1] = test system: Dirofilaria immitis L3/L4; assay: Dirofilaria immitis L3/L4 motility assay (DiroImager, 72 h); conditions: Dirofilaria immitis L4
C. elegans = C. elegans motor phenotype scoring on solid media (Punc/jerky-unc, coiled, paralyzed), wild-type young adults; type: in vivo, Caenorhabditis elegans; conditions: for atypical locomotion (number of animals) / coiled (number of animals) / no phene (number of animals) / paralyzed (number of animals) / any phene: mean % fraction of young adults exhibiting any phenotype (coiled, jerky-Unc or paralyzed) / any phene (mean % fraction of young adults exhibiting any phenotype: coiled, jerky-Unc or paralyzed): one hour; for atypical locomotion (number of animals) / coiled (number of animals) / no phene (number of animals) / paralyzed (number of animals): young adults, 20 animals per trial, single technical replicate; for any phene: mean % fraction of young adults exhibiting any phenotype (coiled, jerky-Unc or paralyzed) / any phene (mean % fraction of young adults exhibiting any phenotype: coiled, jerky-Unc or paralyzed): mean of three biological replicates; for EC50: Caenorhabditis elegans, any motor phenotype after 1 h on solid media, ± 95% CI, read-out: C. elegans - motor disruption EC50
[2] = test system: Dirofilaria immitis microfilariae; assay: Dirofilaria immitis microfilariae immobility assay (DiroImager, 72 h); conditions: Dirofilaria immitis microfilariae
Method in brief: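 Motility read after 72 h drug exposure with an image-based high-throughput plate imager, 1% DMSO medium serving as negative control. Missouri-isolate microfilariae, roughly 250 per well, freshly purified and cultured in supplemented RPMI 1640.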

Pristionchus pacificus = Pristionchus pacificus motor disruption dose-response on solid media, 1 h; conditions: for EC50: Pristionchus pacificus, 1 h, read-out: P. pacificus motor disruption EC50; for mean % any phene: any phenotype (coiled, jerky-Unc or paralyzed) at one hour; for mean % any phene / mean % any phene (coiled, jerky-Unc or paralyzed): mean of three biological replicates; for rep 1 atypical locomotion / rep 1 coiled / rep 1 no phene / rep 1 paralyzed / rep 2 atypical locomotion / rep 2 coiled / rep 2 no phene / rep 2 paralyzed / rep 3 atypical locomotion / rep 3 coiled / rep 3 no phene / rep 3 paralyzed: count of 20 animals per trial, one hour; for mean % any phene (coiled, jerky-Unc or paralyzed): Pristionchus pacificus young adults
rat VAChT = biological target: T1, rat VAChT (Rattus norvegicus, UniProt Q62666); assay: [3H]Vesamicol competitive radioligand binding, PC12 cells expressing ratVAChT
T1 construct: expressed in transfected cells; host or cells: rat PC12 (PC12 A123.7) cells, stably transfected; shared by Dr. Ali Roghani (Texas Tech University)
T1 sequence (Q62666 1-530): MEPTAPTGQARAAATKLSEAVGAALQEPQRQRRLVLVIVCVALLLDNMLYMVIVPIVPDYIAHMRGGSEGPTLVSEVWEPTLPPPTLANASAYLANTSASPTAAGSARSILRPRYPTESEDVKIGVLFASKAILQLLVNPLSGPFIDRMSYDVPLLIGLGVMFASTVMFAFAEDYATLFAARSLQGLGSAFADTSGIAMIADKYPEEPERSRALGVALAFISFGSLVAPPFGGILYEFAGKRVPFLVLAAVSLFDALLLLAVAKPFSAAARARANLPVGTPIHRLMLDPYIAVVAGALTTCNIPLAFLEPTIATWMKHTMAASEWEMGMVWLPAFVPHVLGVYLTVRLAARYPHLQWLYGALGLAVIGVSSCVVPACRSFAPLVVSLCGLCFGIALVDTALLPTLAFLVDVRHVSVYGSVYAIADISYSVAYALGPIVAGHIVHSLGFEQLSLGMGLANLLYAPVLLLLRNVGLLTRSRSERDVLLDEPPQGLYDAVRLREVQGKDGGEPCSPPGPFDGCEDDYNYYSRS

[3] = [3H]Vesamicol binding, PC12, experiment 1, read-out: expt 1 Ki (M) vs. rat VAChT (PC12)
[4] = [3H]Vesamicol binding, PC12, experiment 2, read-out: expt 2 Ki (M) vs. rat VAChT (PC12)
[5] = [3H]Vesamicol binding, rat VAChT (PC12), mean of 2-3 experiments, read-out: mean Ki

Structure (SMILES): CC1CCC(N2CCN(c3ccccc3)CC2)CC1 (centres unmarked) [Nemacol-50]
- % effect (motility), DIROIM L4 ([1]; 2 µM): 0%
- % effect (motility), DIROIM L4 ([1]; 10 µM): 0%
- % effect (motility), DIROIM L4 ([1]; 50 µM): 5%
- atypical locomotion (number of animals) (C. elegans; 3.75uM): 8 and 14 and 7 and 18 and 16
- coiled (number of animals) (C. elegans; 3.75uM): 0 and 1
- no phene (number of animals) (C. elegans; 3.75uM): 11 and 5 and 12 and 13 and 2 and 4
- paralyzed (number of animals) (C. elegans; 3.75uM): 1 and 0
- any phene: mean % fraction of young adults exhibiting any phenotype (coiled, jerky-Unc or paralyzed) (C. elegans; 3.75uM): 60.8333%
- atypical locomotion (number of animals) (C. elegans; 15uM): 10 and 12 and 11 and 17 and 7 and 5
- coiled (number of animals) (C. elegans; 15uM): 1 and 0 and 7 and 3 and 4
- no phene (number of animals) (C. elegans; 15uM): 2 and 0
- paralyzed (number of animals) (C. elegans; 15uM): 7 and 8 and 0 and 9 and 12
- any phene: mean % fraction of young adults exhibiting any phenotype (coiled, jerky-Unc or paralyzed) (C. elegans; 15uM): 96.6667%
- atypical locomotion (number of animals) (C. elegans; 60uM): 1 and 3 and 0 and 6 and 5 and 2
- coiled (number of animals) (C. elegans; 60uM): 8 and 11 and 14 and 5 and 6
- no phene (number of animals) (C. elegans; 60uM): 1 and 0
- paralyzed (number of animals) (C. elegans; 60uM): 10 and 6 and 12
- any phene: mean % fraction of young adults exhibiting any phenotype (coiled, jerky-Unc or paralyzed) (C. elegans; 60uM): 99.1667%
- EC50 (C. elegans): 3 ± 1.3 µM
- % effect (motility), DIROIM MF ([2]; 0.016 µM): 0%
- % effect (motility), DIROIM MF ([2]; 0.08 µM): 0%
- % effect (motility), DIROIM MF ([2]; 0.4 µM): 0%
- % effect (motility), DIROIM MF ([2]; 2 µM): 0%
- % effect (motility), DIROIM MF ([2]; 10 µM): 0%
- EC50 (Pristionchus pacificus): 49.2 µM
- mean % any phene (Pristionchus pacificus; conc 3.75): 0%
- rep 1 atypical locomotion (Pristionchus pacificus; conc 3.75): 0
- rep 1 coiled (Pristionchus pacificus; conc 3.75): 0
- rep 1 no phene (Pristionchus pacificus; conc 3.75): 20
- rep 1 paralyzed (Pristionchus pacificus; conc 3.75): 0
- rep 2 atypical locomotion (Pristionchus pacificus; conc 3.75): 0
- rep 2 coiled (Pristionchus pacificus; conc 3.75): 0
- rep 2 no phene (Pristionchus pacificus; conc 3.75): 20
- rep 2 paralyzed (Pristionchus pacificus; conc 3.75): 0
- rep 3 atypical locomotion (Pristionchus pacificus; conc 3.75): 0
- rep 3 coiled (Pristionchus pacificus; conc 3.75): 0
- rep 3 no phene (Pristionchus pacificus; conc 3.75): 20
- rep 3 paralyzed (Pristionchus pacificus; conc 3.75): 0
- mean % any phene (Pristionchus pacificus; conc 15): 0%
- rep 1 atypical locomotion (Pristionchus pacificus; conc 15): 0
- rep 1 coiled (Pristionchus pacificus; conc 15): 0
- rep 1 no phene (Pristionchus pacificus; conc 15): 20
- rep 1 paralyzed (Pristionchus pacificus; conc 15): 0
- rep 2 atypical locomotion (Pristionchus pacificus; conc 15): 0
- rep 2 coiled (Pristionchus pacificus; conc 15): 0
- rep 2 no phene (Pristionchus pacificus; conc 15): 20
- rep 2 paralyzed (Pristionchus pacificus; conc 15): 0
- rep 3 atypical locomotion (Pristionchus pacificus; conc 15): 0
- rep 3 coiled (Pristionchus pacificus; conc 15): 0
- rep 3 no phene (Pristionchus pacificus; conc 15): 20
- rep 3 paralyzed (Pristionchus pacificus; conc 15): 0
- mean % any phene (Pristionchus pacificus; conc 60): 98.3333%
- rep 1 atypical locomotion (Pristionchus pacificus; conc 60): 9 and 5
- rep 1 coiled (Pristionchus pacificus; conc 60): 4 and 2
- rep 1 no phene (Pristionchus pacificus; conc 60): 0
- rep 1 paralyzed (Pristionchus pacificus; conc 60): 7 and 13
- rep 2 atypical locomotion (Pristionchus pacificus; conc 60): 7 and 10
- rep 2 coiled (Pristionchus pacificus; conc 60): 4 and 2
- rep 2 no phene (Pristionchus pacificus; conc 60): 0
- rep 2 paralyzed (Pristionchus pacificus; conc 60): 9 and 8
- rep 3 atypical locomotion (Pristionchus pacificus; conc 60): 11 and 13
- rep 3 paralyzed (Pristionchus pacificus; conc 60): 6 and 4
- Ki (rat VAChT; [3]): 1.82e-06 M
- Ki (rat VAChT; [4]): 2.05e-06 M
- Ki (rat VAChT; [3H]Vesamicol binding, PC12, third experiment column (date expt 3), read-out: expt 2 Ki (M) vs. rat VAChT (PC12)): 1.95e-06 M
- Ki (rat VAChT; [5]): 1.94e-06 M
- Ki (rat VAChT; [3H]Vesamicol displacement, mean, read-out: ratVAChT Ki): 1.94e-06 M

Structure (SMILES): Cc1ccc(N2CCN(CC3CC4C=CC3C4)CC2)cc1 (centres unmarked) [Nemacol-43]
- % effect (motility), DIROIM L4 ([1]; 2 µM): 6%
- % effect (motility), DIROIM L4 ([1]; 10 µM): 5%
- % effect (motility), DIROIM L4 ([1]; 50 µM): 20%
- any phene (mean % fraction of young adults exhibiting any phenotype: coiled, jerky-Unc or paralyzed) (C. elegans; 3.75uM, third c14 line of each analog): 33.7698%
- any phene (mean % fraction of young adults exhibiting any phenotype: coiled, jerky-Unc or paralyzed) (C. elegans; 15uM, second c14 line of each analog): 100%
- any phene (mean % fraction of young adults exhibiting any phenotype: coiled, jerky-Unc or paralyzed) (C. elegans; 60uM, first c14 line of each analog): 100%
- EC50 (C. elegans): 3.9 µM
- % effect (motility), DIROIM MF ([2]; 0.016 µM): 0%
- % effect (motility), DIROIM MF ([2]; 0.08 µM): 0%
- % effect (motility), DIROIM MF ([2]; 0.4 µM): 0%
- % effect (motility), DIROIM MF ([2]; 2 µM): 0%
- % effect (motility), DIROIM MF ([2]; 10 µM): 0%
- mean % any phene (coiled, jerky-Unc or paralyzed) (Pristionchus pacificus; conc 3.75, observed at one hour): 0%
- mean % any phene (coiled, jerky-Unc or paralyzed) (Pristionchus pacificus; conc 15, observed at one hour): 20.8333%
- mean % any phene (coiled, jerky-Unc or paralyzed) (Pristionchus pacificus; conc 60, observed at one hour): 76.4035%
- EC50 (Pristionchus pacificus): 31.5 ± 4.9 µM
- Ki (rat VAChT; [3]): 1.91e-07 M
- Ki (rat VAChT; [4]): 1.26e-07 M
- Ki (rat VAChT; [5]): 1.59e-07 M
